ChEMBL document CHEMBL4819127, “Syntheses and antimicrobial activities of ogipeptin derivatives” (Bioorg Med Chem Lett, 2021)
In brackets after ≈: the same amount, converted by molar mass.

What was measured:
[1] = tested on: Pseudomonas aeruginosa; experiment: Antibacterial activity against Pseudomonas aeruginosa IHMA 1375891 assessed as bacterial growth inhibition; format: functional
[2] = tested on: Klebsiella pneumoniae; experiment: Antibacterial activity against Klebsiella pneumoniae JCM 1662 assessed as bacterial growth inhibition; format: functional
[3] = tested on: HepG2; experiment: Cytotoxicity against human HepG2 cells; format: functional
[4] = tested on: Pseudomonas aeruginosa; experiment: Antibacterial activity against Pseudomonas aeruginosa ATCC 15692 assessed as bacterial growth inhibition; format: functional
[5] = tested on: Acinetobacter baumannii; experiment: Antibacterial activity against Acinetobacter baumannii IHMA 1312713 assessed as bacterial growth inhibition; format: functional
[6] = tested on: Klebsiella pneumoniae; experiment: Antibacterial activity against Klebsiella pneumoniae IHMA 1387833 assessed as bacterial growth inhibition; format: functional
[7] = tested on: Klebsiella pneumoniae; experiment: Antibacterial activity against Klebsiella pneumoniae ATCC 700721 assessed as bacterial growth inhibition; format: functional
[8] = tested on: Pseudomonas aeruginosa; experiment: Antibacterial activity against Pseudomonas aeruginosa ATCC 27853 assessed as bacterial growth inhibition; format: functional
[9] = tested on: Acinetobacter baumannii; experiment: Antibacterial activity against Acinetobacter baumannii ATCC 19606 assessed as bacterial growth inhibition; format: functional; settings: ATCC 19606 = CIP 70.34 = JCM 6841
[10] = tested on: Escherichia coli; experiment: Antibacterial activity against Escherichia coli ATCC 47076 assessed as bacterial growth inhibition; format: functional
[11] = tested on: Klebsiella pneumoniae; experiment: Antibacterial activity against Klebsiella pneumoniae ATCC 10031 assessed as bacterial growth inhibition; format: functional
[12] = Cytotoxicity against HEK293 cells; format: cell-based; settings: human, HEK293 cells

Row | Molecule | MIC [1] | MIC [2] | CC50 [3] | MIC [4] | MIC [5] | MIC [6] | MIC [7] | MIC [8] | MIC [9] | MIC [10] | MIC [11] | CC50 [12]
1 | C/C=C1\NC(=O)C(NC(=O)c2ccc(-c3cc(-c4ccc(OCCCCC)cc4)on3)cc2)C(O)CNC(=O)C(C(O)CN)NC(=O)C(C(O)CN)NC(=O)[C@H](CCCNC(=N)N)NC(=O)[C@H](CC(C)C)NC(=O)[C@H](CCN)NC1=O (stereo partly specified) | 128 µg/mL (≈ 113 µM) | 256 µg/mL (≈ 226 µM) | 35 µM | 64 µg/mL (≈ 56.4 µM) | 32 µg/mL (≈ 28.2 µM) | 256 µg/mL (≈ 226 µM) | 128 µg/mL (≈ 113 µM) | 16 µg/mL (≈ 14.1 µM) | 16 µg/mL (≈ 14.1 µM) | 8 µg/mL (≈ 7.05 µM) | 8 µg/mL (≈ 7.05 µM) | 
2 | C/C=C1\NC(=O)C(NC(=O)Cc2ccc(NC(=O)Nc3c(C)cccc3C)c(Cl)c2)C(O)CNC(=O)C(C(O)CN)NC(=O)C(C(O)CN)NC(=O)[C@H](CCCNC(=N)N)NC(=O)[C@H](CC(C)C)NC(=O)[C@H](CCN)NC1=O (stereo partly specified) | > 256 µg/mL | > 256 µg/mL | > 64 µM | > 256 µg/mL | > 256 µg/mL | > 256 µg/mL | > 256 µg/mL | 128 µg/mL (≈ 115 µM) | > 256 µg/mL | 4 µg/mL (≈ 3.59 µM) | 128 µg/mL (≈ 115 µM) | > 64 µM
3 | C/C=C1\NC(=O)C(NC(=O)c2cn(-c3ccccc3)nc2-c2ccc(Cl)cc2)C(O)CNC(=O)C(C(O)CN)NC(=O)C(C(O)CN)NC(=O)[C@H](CCCNC(=N)N)NC(=O)[C@H](CC(C)C)NC(=O)[C@H](CCN)NC1=O (stereo partly specified) | 128 µg/mL (≈ 118 µM) | > 256 µg/mL | > 64 µM | 128 µg/mL (≈ 118 µM) | 64 µg/mL (≈ 59.2 µM) | > 256 µg/mL | > 256 µg/mL | 8 µg/mL (≈ 7.4 µM) | 8 µg/mL (≈ 7.4 µM) | 4 µg/mL (≈ 3.7 µM) | 4 µg/mL (≈ 3.7 µM) | > 64 µM
4 | C/C=C1\NC(=O)C(NC(=O)CCc2nc(-c3ccc(OC)cc3)no2)C(O)CNC(=O)C(C(O)CN)NC(=O)C(C(O)CN)NC(=O)[C@H](CCCNC(=N)N)NC(=O)[C@H](CC(C)C)NC(=O)[C@H](CCN)NC1=O (stereo partly specified) | > 256 µg/mL | > 256 µg/mL | > 64 µM | > 256 µg/mL | > 256 µg/mL | > 256 µg/mL | 2 µg/mL (≈ 1.94 µM) | 8 µg/mL (≈ 7.76 µM) | 8 µg/mL (≈ 7.76 µM) | 2 µg/mL (≈ 1.94 µM) | 2 µg/mL (≈ 1.94 µM) | > 64 µM
5 | C/C=C1\NC(=O)C(NC(=O)c2ccc(-c3nnn(CC(=O)N(C)C)n3)cc2)C(O)CNC(=O)C(C(O)CN)NC(=O)C(C(O)CN)NC(=O)[C@H](CCCNC(=N)N)NC(=O)[C@H](CC(C)C)NC(=O)[C@H](CCN)NC1=O (stereo partly specified) | > 256 µg/mL | > 256 µg/mL | > 64 µM | > 256 µg/mL | > 256 µg/mL | > 256 µg/mL | > 256 µg/mL | 128 µg/mL (≈ 121 µM) | > 256 µg/mL | 16 µg/mL (≈ 15.1 µM) | 256 µg/mL (≈ 242 µM) | > 64 µM
6 | C/C=C1\NC(=O)C(NC(=O)CCc2nc(-c3ccncc3)no2)C(O)CNC(=O)C(C(O)CN)NC(=O)C(C(O)CN)NC(=O)[C@H](CCCNC(=N)N)NC(=O)[C@H](CC(C)C)NC(=O)[C@H](CCN)NC1=O (stereo partly specified) | > 256 µg/mL | > 256 µg/mL | > 64 µM | > 256 µg/mL | > 256 µg/mL | > 256 µg/mL | 32 µg/mL (≈ 31.9 µM) | > 256 µg/mL | 256 µg/mL (≈ 255 µM) | 2 µg/mL (≈ 2 µM) | 8 µg/mL (≈ 7.98 µM) | > 64 µM
7 | COLISTIN | 64 µg/mL | 4 µg/mL | > 64 µM | 2 µg/mL | 8 µg/mL | 32 µg/mL | 1 µg/mL | 2 µg/mL | 2 µg/mL | 1 µg/mL | 1 µg/mL | 
8 | C/C=C1\NC(=O)C(NC(=O)C2CC3(CCN(C(=O)OC(C)(C)C)CC3)c3ccccc32)C(O)CNC(=O)C(C(O)CN)NC(=O)C(C(O)CN)NC(=O)[C@H](CCCNC(=N)N)NC(=O)[C@H](CC(C)C)NC(=O)[C@H](CCN)NC1=O (stereo partly specified) | > 256 µg/mL | > 256 µg/mL | > 64 µM | > 256 µg/mL | > 256 µg/mL | > 256 µg/mL | > 256 µg/mL | 16 µg/mL (≈ 14.4 µM) | 256 µg/mL (≈ 230 µM) | 4 µg/mL (≈ 3.59 µM) | 4 µg/mL (≈ 3.59 µM) | > 64 µM
9 | C/C=C1\NC(=O)C(NC(=O)c2ccc(NS(=O)(=O)Cc3ccccc3)cc2)C(O)CNC(=O)C(C(O)CN)NC(=O)C(C(O)CN)NC(=O)[C@H](CCCNC(=N)N)NC(=O)[C@H](CC(C)C)NC(=O)[C@H](CCN)NC1=O (stereo partly specified) | > 256 µg/mL | > 256 µg/mL | > 64 µM | > 256 µg/mL | > 256 µg/mL | > 256 µg/mL | > 256 µg/mL | 256 µg/mL (≈ 238 µM) | > 256 µg/mL | 16 µg/mL (≈ 14.9 µM) | 128 µg/mL (≈ 119 µM) | > 64 µM
10 | C/C=C1\NC(=O)C(NC(=O)[C@H]2CC[C@H](CNC(=O)OCc3ccccc3)CC2)C(O)CNC(=O)C(C(O)CN)NC(=O)C(C(O)CN)NC(=O)[C@H](CCCNC(=N)N)NC(=O)[C@H](CC(C)C)NC(=O)[C@H](CCN)NC1=O (stereo partly specified) | > 256 µg/mL | > 256 µg/mL | > 64 µM | > 256 µg/mL | > 256 µg/mL | > 256 µg/mL | > 256 µg/mL | 8 µg/mL (≈ 7.45 µM) | 256 µg/mL (≈ 238 µM) | 8 µg/mL (≈ 7.45 µM) | 32 µg/mL (≈ 29.8 µM) | > 64 µM
11 | C/C=C1\NC(=O)C(NC(=O)CCc2nnc(-c3ccc(OC)cc3)[nH]2)C(O)CNC(=O)C(C(O)CN)NC(=O)C(C(O)CN)NC(=O)[C@H](CCCNC(=N)N)NC(=O)[C@H](CC(C)C)NC(=O)[C@H](CCN)NC1=O (stereo partly specified) | > 256 µg/mL | > 256 µg/mL | > 64 µM | > 256 µg/mL | > 256 µg/mL | > 256 µg/mL | 16 µg/mL (≈ 15.5 µM) | 8 µg/mL (≈ 7.77 µM) | > 256 µg/mL | 2 µg/mL (≈ 1.94 µM) | 8 µg/mL (≈ 7.77 µM) | > 64 µM
12 | C/C=C1\NC(=O)C(NC(=O)Cc2c(C)n(C(=O)c3ccc(Cl)cc3)c3ccc(OC)cc23)C(O)CNC(=O)C(C(O)CN)NC(=O)C(C(O)CN)NC(=O)[C@H](CCCNC(=N)N)NC(=O)[C@H](CC(C)C)NC(=O)[C@H](CCN)NC1=O (stereo partly specified) | 64 µg/mL (≈ 56.1 µM) | > 256 µg/mL | > 64 µM | 32 µg/mL (≈ 28.1 µM) | > 256 µg/mL | > 256 µg/mL | > 256 µg/mL | 8 µg/mL (≈ 7.01 µM) | 32 µg/mL (≈ 28.1 µM) | 2 µg/mL (≈ 1.75 µM) | 4 µg/mL (≈ 3.51 µM) | > 64 µM
13 | C/C=C1\NC(=O)C(NC(=O)c2cn3c4c(c(N5CCN(C)CC5)c(F)cc4c2=O)OC[C@@H]3C)C(O)CNC(=O)C(C(O)CN)NC(=O)C(C(O)CN)NC(=O)[C@H](CCCNC(=N)N)NC(=O)[C@H](CC(C)C)NC(=O)[C@H](CCN)NC1=O (stereo partly specified) | > 128 µg/mL | > 128 µg/mL | > 64 µM | > 128 µg/mL | > 128 µg/mL | > 256 µg/mL | > 256 µg/mL | 32 µg/mL (≈ 28 µM) | > 128 µg/mL | 128 µg/mL (≈ 112 µM) | 64 µg/mL (≈ 55.9 µM) | > 64 µM
14 | C/C=C1\NC(=O)C(NC(=O)CCCCCCCCC(=O)OCc2ccccc2)C(O)CNC(=O)C(C(O)CN)NC(=O)C(C(O)CN)NC(=O)[C@H](CCCNC(=N)N)NC(=O)[C@H](CC(C)C)NC(=O)[C@H](CCN)NC1=O (stereo partly specified) | 256 µg/mL (≈ 238 µM) | 16 µg/mL (≈ 14.9 µM) | > 64 µM | 16 µg/mL (≈ 14.9 µM) | 128 µg/mL (≈ 119 µM) | > 256 µg/mL | 8 µg/mL (≈ 7.44 µM) | 16 µg/mL (≈ 14.9 µM) | 4 µg/mL (≈ 3.72 µM) | 9 µg/mL (≈ 8.37 µM) | 8 µg/mL (≈ 7.44 µM) | > 64 µM
